Results on three compounds are retold here after US20210000955A1, “PHOTODYNAMICALLY ACTIVE ORGANOSILICA NANOPARTICLES AND MEDICAL USES THEREOF” (NANYANG TECHNOLOGICAL UNIVERSITY, priority 2017, published 2021).

Series [1] can be described thus: Topical penetration of porcine skin, IVIS fluorescence. The note with it: regardless of the microneedle treatment. Type of series: in vitro ADME. Here is the method: Fresh full-thickness porcine skin was obtained from a local wholesaler and cut into 1 cm by 1 cm pieces. The subcutaneous fats were gently stripped from the porcine skin. Any remaining skin was kept frozen at −20° C. and used as soon as possible. A pyramidal stainless steel microneedle patch consisting of 100 needles in a 10×10 array with a height of ˜500 μm, a tip radius of 5 μm, a pitch of ˜700 μm and a base width of ˜300 μm was obtained from Micropoint Technologies Pte Ltd (Singapore). […] PcNP solution at 20 mg/mL concentration was compared against free Pc (equivalent to the concentration of Pc in PcNP at 20 mg/mL). The penetration of PcNP was tested after two durations: 10 minutes and 1 hour. The penetration was conducted with and without the help of the microneedle patch. Briefly, if required, the skin was pierced with the microneedle patch under a force of about 4 N for 10 seconds before its removal. […] The fluorescence intensity of the adsorbed Pc was measured using an IVIS SpectrumCT Pre-clinical in Vivo Imaging System (Perkin Elmer), where λex/em is 640/700-760 nm. […] To calculate the percentage of PcNP that penetrated into the skin, the intensity reading for each skin was normalized against that of PBS and PcNP positive control. In the case of free Pc penetration, this percentage was calculated by normalizing the readings against that of PBS and free Pc positive control.

In the next series the test system is SKMEL-28 cells. In words: In vitro oxidative stress detection. Type of series: cell-based, Human. As to conditions: positive control, 1 μM, 15 minutes. Here is the method: The in vitro oxidative stress was analyzed using the Image-IT® LIVE Green Reactive Oxygen Species Detection Kit from Thermo Fisher according to manufacturer's instructions. SKMEL-28 cells were seeded in a 12-well plate. PcNP was added at a final concentration of 25 μg/mL. After incubation for 12 hours, the cells were labelled with carboxy-H2DCFDA for 10 minutes and washed with PBS. The cells corresponding to the PcNP+hv treatment were irradiated with 730 nm, 0.75 W/cm^2 laser for 20 minutes. A positive control using common ROS production inducer TBHP was added to a final concentration of 1 μM and incubated for 15 minutes. After the treatment, the cell nuclei were labeled with Hoechst 33342 (1 μM). Coverslips were then washed with PBS, fixed and mounted onto microscopy glass slides for imaging by CLSM. Carboxy-H2DCFDA λex/em: 488/529 nm, Hoechst 33342 λex/em: 350/461 nm.

The conditions of series [2]: obtained online; cited from earlier work.

For `c1ccc2c(c1)-c1nc-2nc2[nH]c(nc3nc(nc4[nH]c(n1)c1ccccc41)-c1ccccc1-3)c1ccccc21` [free Pc, Phthalocyanine], in series [1], the skin penetration entry is on record as “minimal skin penetration”. Consider `CC(C)(C)OO` [TBHP, tert-Butyl hydroperoxide], for which the cells oxidatively stressed entry in the series on SKMEL-28 cells is “about 74%”. Take `CN(C)c1ccc2nc3ccc(=[N+](C)C)cc-3sc2c1` [MB, methylene blue]: the “singlet oxygen quantum yield ΦΔ(MB), reference value” in series [2] was 0.52.
